Measured values: patent publication US20120178147A1, “MICROBIAL CULTURES AND METHODS FOR ANAEROBIC BIOREMEDIATION” (priority 2009, published 2012)

Tested on: sediment microcosms
Assay: Effect of TCC, TCS and BES on TCE dechlorination in sediment microcosms and cultures derived from them
Format: cell-based
Conditions: for effect on TCE reductive dechlorination in microcosms: addition of 20 μg/L TCC and TCS; for effect on TCE dechlorination rates in sediment-free cultures: cultures from microcosms amended with TCC, TCS, BES
Description: In this study, microcosm is defined as: anaerobic airtight serum bottles with sediment samples, anaerobic medium, electron donor, and a chlorinated compound used as an electron acceptor. Four microcosms were set up in the anaerobic glove chamber with H2 concentration of 3% (Coy laboratory products Inc. Grass Lake, Mich.). Ten gram of homogeneously mixed sediment from either core A or core D were transferred independently into a 160 ml sterile serum bottle, and 90 ml anaerobic media with vitamin solution and 2 mM lactate were added. One hundred μL of 20 mg/L TCC stock solution in methanol and 100 μL of 20 mg/L TCS stock solution were added by pipette (Eppendorf, Calif.) to two of the four microcosms. Microcosms were capped with thick black butyl rubber stoppers and aluminum crimps. 4.5 μL pure TCE was injected with airtight syringe (Hamilton Company, Reno, Nev.) into each serum bottle. On day 130, in order to inhibit methane production in the sediment microcosms, 25 mM BES was added in to sediment-A microcosm and sediment-D microcosm with TCC and TCS with airtight syringe (Hamilton Company, Reno, Nev.). Microcosms were stored in the dark and incubated at 30° C.
Production of Sediment-Free Cultures. To establish sediment-free cultures from core A and core D sediment microcosms, the microcosms were shaken vigorously, and the solids were allowed to settle down. Then, using 1-inch, 21-gauge sterile needles, […] liquid (10 ml) were transferred into 89 ml sterile medium with the following contents: anaerobic medium, ATCC vitamin mix, and vitamin B12, in 160-ml serum bottles. Then, 1 ml each of 500-mM lactate stock solution and 35-μL TCE stock solution (1 mol/L in methanol) were added to form a 100 ml culture in 160-ml serum bottle. Three sediment cultures were derived from each sediment microcosm, and 12 sediment-free cultures were produced (FIG. 1). For organizational purposes, we refer to the sediment-free cultures generated from sediment-A microcosms as SCA and the sediment free cultures generated from sediment-D microcosms as DehaloR̂2, in the figures herein, the DehaloR̂2 are referred to as “SCD”. Thus, the term “SCD” and DehaloR̂2 are used interchangeably herein as the composition “SCD” was renamed “DehaloR̂2” during the course of investigation. The sediment-free cultures were kept in the dark and incubated at 30° C. After all the chlorinated electron acceptors were consumed, the cultures were re-spiked with TCE and electron donors.
BES (2-bromoethanesulfonate) is an efficient inhibitor for the metabolism of methanogens in methanogenetic cultures because it is a structural analog and competitive inhibitor of coenzyme M, which is only found in methanogens (Dimarco et al., 1990; Sparling and Daniels, 1987). Different concentrations of BES have been used by researchers. […] In this study, in order to determine if the cause for incomplete reductive dechlorination was competition for electron donor between methanogens and TCE dechlorinating microorganisms in the microcosms, I added 25 mM BES, 70 μmol of TCE, and 5 mM lactate into two sediment microcosms, sediment-A and sediment-D with TCC and TCS. In two other sediment microcosms, I added 70 μmol of TCE and 5 mM lactate without BES.

SMILES	effect on TCE reductive dechlorination in microcosms	effect on TCE dechlorination rates in sediment-free cultures
O=C(Nc1ccc(Cl)cc1)Nc1ccc(Cl)c(Cl)c1 [TCC, 3-(4-chlorophenyl)-1-(3,4-dichlorphenyl) urea]	can be neglected	slow down TCE dechlorination rates
Oc1cc(Cl)ccc1Oc1ccc(Cl)cc1Cl [TCS, 5-chloro-2-[2,4-dichloro-phenoxy]-phenol]	can be neglected	slow down TCE dechlorination rates
